Experiment: BET active specific surface area (U.S. Pharmacopeia General Chapter <846>)
Format: physicochemical
Conditions: pharmaceutical grade ferric citrate, dried powder from one-pot process
Procedure: According to the present invention, the pharmaceutical grade ferric citrate having BET surface area in the range of […]. the method of analysis for BET surface are of the ferric citrate is performed as per U.S. Pharmacopeia General Chapter <846>.

Substance | BET Active Specific Surface Area [m^2/gm]
ferric citrate [EXAMPLE-2] | 6.47
ferric citrate [EXAMPLE-1] | 6.51
